# Reference: PubChem BioAssay (NCI)
#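 Growth conditions: 96-well plates. Treatment: test compound, 48 hours, 5 concentrations. Analysis: linear interpolation between bracketing concentrations; unreached endpoints set to highest concentration. The concentration for 50% growth inhibition is given as GI50. At the TGI there is no net growth.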
# Columns and labels:
# Experiment in all cases: DTP human tumour cell line panel, 48 h
# TK-10 renal = system: TK-10 renal
# UO-31 renal = system: UO-31 renal
# SF-295 CNS = system: SF-295 CNS
# BT-549 breast = system: BT-549 breast
# A549 NSCLC = system: A549 NSCLC
# SK-MEL-2 melanoma = system: SK-MEL-2 melanoma
# CCRF-CEM leukemia = system: CCRF-CEM leukemia
# SNB-19 CNS = system: SNB-19 CNS
# OVCAR-4 ovarian = system: OVCAR-4 ovarian
# ACHN renal = system: ACHN renal
# DU-145 prostate = system: DU-145 prostate
# MCF7 breast = system: MCF7 breast
# LOX IMVI melanoma = system: LOX IMVI melanoma
# SK-MEL-28 melanoma = system: SK-MEL-28 melanoma
# UACC-257 melanoma = system: UACC-257 melanoma
# U251 CNS = system: U251 CNS
# SK-MEL-5 melanoma = system: SK-MEL-5 melanoma
# HOP-62 NSCLC = system: HOP-62 NSCLC
# SW-620 colon = system: SW-620 colon
# MOLT-4 leukemia = system: MOLT-4 leukemia
# 786-0 renal = system: 786-0 renal
# MDA-MB-435 = system: MDA-MB-435
# RPMI-8226 leukemia = system: RPMI-8226 leukemia
# SR leukemia = system: SR leukemia
# MDA-MB-231 breast = system: MDA-MB-231 breast
# M14 melanoma = system: M14 melanoma
# EKVX NSCLC = system: EKVX NSCLC
# NCI-H460 lung = system: NCI-H460 lung
# OVCAR-5 ovarian = system: OVCAR-5 ovarian
# SNB-75 CNS = system: SNB-75 CNS
# HCT-116 colon = system: HCT-116 colon
# HL-60(TB) leukemia = system: HL-60(TB) leukemia
# SK-OV-3 ovarian = system: SK-OV-3 ovarian
# UACC-62 melanoma = system: UACC-62 melanoma
# SF-268 CNS = system: SF-268 CNS
# HCC-2998 colon = system: HCC-2998 colon
# RXF 393 renal = system: RXF 393 renal
# IGROV1 ovarian = system: IGROV1 ovarian
# HCT-15 colon = system: HCT-15 colon
# T-47D breast = system: T-47D breast
# NCI-H226 lung = system: NCI-H226 lung
# OVCAR-3 ovarian = system: OVCAR-3 ovarian
# HOP-92 NSCLC = system: HOP-92 NSCLC
# COLO 205 colon = system: COLO 205 colon
# PC-3 prostate = system: PC-3 prostate
# MDA-MB-468 breast = system: MDA-MB-468 breast
# SN12C renal = system: SN12C renal
# HT29 colon = system: HT29 colon
# A498 renal = system: A498 renal
# KM12 colon = system: KM12 colon
# NCI-H522 lung = system: NCI-H522 lung
# HS 578T breast = system: HS 578T breast
# OVCAR-8 ovarian = system: OVCAR-8 ovarian
# SF-539 CNS = system: SF-539 CNS
# MALME-3M melanoma = system: MALME-3M melanoma
# K-562 leukemia = system: K-562 leukemia
# CAKI-1 renal = system: CAKI-1 renal
# NCI-H23 lung = system: NCI-H23 lung
smiles,measurement,setting,value
COc1ccccc1NC(=O)c1ccc(NC(=O)CCl)s1,GI50,TK-10 renal,20.4 µM
same,TGI,TK-10 renal,73.6 µM
same,GI50,UO-31 renal,13.7 µM
same,TGI,UO-31 renal,27.3 µM
same,GI50,SF-295 CNS,25.9 µM
same,TGI,SF-295 CNS,> 100 µM
same,GI50,BT-549 breast,12.2 µM
same,TGI,BT-549 breast,26.8 µM
same,GI50,A549 NSCLC,14.7 µM
same,TGI,A549 NSCLC,40 µM
same,GI50,SK-MEL-2 melanoma,13.9 µM
same,TGI,SK-MEL-2 melanoma,29.2 µM
same,GI50,CCRF-CEM leukemia,3.62 µM
same,TGI,CCRF-CEM leukemia,88.1 µM
same,GI50,SNB-19 CNS,32.4 µM
same,TGI,SNB-19 CNS,> 100 µM
same,GI50,OVCAR-4 ovarian,21 µM
same,TGI,OVCAR-4 ovarian,68.7 µM
same,GI50,ACHN renal,10.5 µM
same,TGI,ACHN renal,24.5 µM
same,GI50,DU-145 prostate,24.7 µM
same,TGI,DU-145 prostate,85 µM
same,GI50,MCF7 breast,5.02 µM
same,TGI,MCF7 breast,44 µM
same,GI50,LOX IMVI melanoma,4.81 µM
same,TGI,LOX IMVI melanoma,18.5 µM
same,GI50,SK-MEL-28 melanoma,21.9 µM
same,TGI,SK-MEL-28 melanoma,54.1 µM
same,GI50,UACC-257 melanoma,24.3 µM
same,TGI,UACC-257 melanoma,> 100 µM
same,GI50,U251 CNS,13.9 µM
same,TGI,U251 CNS,28.1 µM
same,GI50,SK-MEL-5 melanoma,15.3 µM
same,TGI,SK-MEL-5 melanoma,29.4 µM
same,GI50,HOP-62 NSCLC,36.4 µM
same,TGI,HOP-62 NSCLC,> 100 µM
same,GI50,SW-620 colon,4.27 µM
same,TGI,SW-620 colon,21.7 µM
same,GI50,MOLT-4 leukemia,4.23 µM
same,TGI,MOLT-4 leukemia,40.6 µM
same,GI50,786-0 renal,12.3 µM
same,TGI,786-0 renal,26.1 µM
same,GI50,MDA-MB-435,15.7 µM
same,TGI,MDA-MB-435,32.5 µM
same,GI50,RPMI-8226 leukemia,13.6 µM
same,TGI,RPMI-8226 leukemia,38.6 µM
same,GI50,SR leukemia,3.11 µM
same,TGI,SR leukemia,> 100 µM
same,GI50,MDA-MB-231 breast,15.2 µM
same,TGI,MDA-MB-231 breast,33.7 µM
same,GI50,M14 melanoma,13.1 µM
same,TGI,M14 melanoma,28.7 µM
same,GI50,EKVX NSCLC,18 µM
same,TGI,EKVX NSCLC,67.7 µM
same,GI50,NCI-H460 lung,11 µM
same,TGI,NCI-H460 lung,35.4 µM
same,GI50,OVCAR-5 ovarian,23.6 µM
same,TGI,OVCAR-5 ovarian,49.2 µM
same,GI50,SNB-75 CNS,11.5 µM
same,TGI,SNB-75 CNS,83.2 µM
same,GI50,HCT-116 colon,5.52 µM
same,TGI,HCT-116 colon,30.5 µM
same,GI50,HL-60(TB) leukemia,4.76 µM
same,TGI,HL-60(TB) leukemia,35.6 µM
same,GI50,SK-OV-3 ovarian,29.5 µM
same,TGI,SK-OV-3 ovarian,74.9 µM
same,GI50,UACC-62 melanoma,16.1 µM
same,TGI,UACC-62 melanoma,31 µM
same,GI50,SF-268 CNS,18.8 µM
same,TGI,SF-268 CNS,64.2 µM
same,GI50,HCC-2998 colon,28.6 µM
same,TGI,HCC-2998 colon,> 100 µM
same,GI50,RXF 393 renal,11.6 µM
same,TGI,RXF 393 renal,25.1 µM
same,GI50,IGROV1 ovarian,15.6 µM
same,TGI,IGROV1 ovarian,34.9 µM
same,GI50,HCT-15 colon,4.29 µM
same,TGI,HCT-15 colon,29 µM
same,GI50,T-47D breast,42.3 µM
same,TGI,T-47D breast,> 100 µM
same,GI50,NCI-H226 lung,14.6 µM
same,TGI,NCI-H226 lung,32.4 µM
same,GI50,OVCAR-3 ovarian,13.6 µM
same,TGI,OVCAR-3 ovarian,29 µM
same,GI50,HOP-92 NSCLC,16.5 µM
same,TGI,HOP-92 NSCLC,34.7 µM
same,GI50,COLO 205 colon,15.1 µM
same,TGI,COLO 205 colon,35.5 µM
same,GI50,PC-3 prostate,11.1 µM
same,TGI,PC-3 prostate,28.4 µM
same,GI50,MDA-MB-468 breast,12.4 µM
same,TGI,MDA-MB-468 breast,27.7 µM
same,GI50,SN12C renal,13.4 µM
same,TGI,SN12C renal,36 µM
same,GI50,HT29 colon,8.76 µM
same,TGI,HT29 colon,22.9 µM
same,GI50,A498 renal,87.4 µM
same,TGI,A498 renal,> 100 µM
same,GI50,KM12 colon,14.7 µM
same,TGI,KM12 colon,38.8 µM
same,GI50,NCI-H522 lung,10.6 µM
same,TGI,NCI-H522 lung,24 µM
same,GI50,HS 578T breast,15.1 µM
same,TGI,HS 578T breast,54.4 µM
same,GI50,OVCAR-8 ovarian,12.7 µM
same,TGI,OVCAR-8 ovarian,33.8 µM
same,GI50,SF-539 CNS,16.2 µM
same,TGI,SF-539 CNS,30.8 µM
same,GI50,MALME-3M melanoma,15.1 µM
same,TGI,MALME-3M melanoma,30.5 µM
same,GI50,K-562 leukemia,2.65 µM
same,TGI,K-562 leukemia,> 100 µM
same,GI50,CAKI-1 renal,12.8 µM
same,TGI,CAKI-1 renal,29 µM
same,GI50,NCI-H23 lung,13.6 µM
same,TGI,NCI-H23 lung,31.2 µM
